This note sets out measurements from PMC3230703 (Journal of molecular biology, 2011).

The target in the assay is GBSSrtC1 (SAG2603 V/R sortase C1) (Streptococcus agalactiae, UniProt Q8E0S7). In words: NMR. Particulars: irreversible cysteine protease inhibitor; in solution. Format: binding.

Regarding `CC(C)C[C@H](NC(=O)[C@H]1O[C@@H]1C(=O)O)C(=O)NCCCCN=C(N)N` [E64], the “NMR (results not shown)” value is “inhibitors MTSET and E64 in solution was confirmed by mass spectrometry and NMR, respectively”.
